Measured values: PubChem BioAssay AID276 (DTP/NCI, 2004)
“And” between values parts separate entries of the source, which are not always exact repeats. Equal values may be shown once. Toxic doses and inconclusive results are not listed. How the source made its calls: active means survival T/C of 150% or more; inactive means T/C below 125% in these data.

Tested on: B6C3F1 mice, Lewis lung carcinoma iv, survival T/C
Assay: NCI In Vivo Anticancer Drug Screen. Data for tumor model Lewis Lung Carcinoma (intravenous) in B6C3F1 mice
Details: endpoint: median survival time, schedule: Q01DX009 (ip), higher = longer survival
How it was run: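 Mice carrying transplanted tumors received test compound; survival in the treated group was divided by that of the vehicle-treated control group to give the T/C value.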

[1] = dose: 6.25 mg/kg/injection, vehicle: water
[2] = dose: 12.5 mg/kg/injection, vehicle: water
[3] = dose: 25.0 mg/kg/injection, vehicle: water
[4] = dose: 1.0 mg/kg/injection, vehicle: saline
[5] = dose: 6.25 mg/kg/injection, vehicle: saline with Tween-80
[6] = dose: 12.5 mg/kg/injection, vehicle: saline with Tween-80
[7] = dose: 25.0 mg/kg/injection, vehicle: saline with Tween-80
[8] = dose: 50.0 mg/kg/injection, vehicle: saline with Tween-80
[9] = dose: 100.0 mg/kg/injection, vehicle: saline with Tween-80
[10] = dose: 200.0 mg/kg/injection, vehicle: saline with Tween-80
[11] = dose: 12.5 mg/kg/injection, vehicle: Klucel (hydroxypropylcellulose) (HPC)
[12] = dose: 25.0 mg/kg/injection, vehicle: Klucel (hydroxypropylcellulose) (HPC)
[13] = dose: 50.0 mg/kg/injection, vehicle: Klucel (hydroxypropylcellulose) (HPC)
[14] = dose: 100.0 mg/kg/injection, vehicle: Klucel (hydroxypropylcellulose) (HPC)

Measured: T/C

COc1ccc(-c2csc(=[N+]3CCCCC3)s2)cc1
inactive: dose: 1.56 mg/kg/injection, vehicle: water 108 % of control | dose: 3.12 mg/kg/injection, vehicle: water 104 % of control | [1] 104 % of control | [2] 94 % of control | [3] 95 % of control

Nc1cc(Cl)c2[nH]cnc2n1
inactive: [1] 94 % of control | [2] 98 % of control | [3] 100 % of control | dose: 50.0 mg/kg/injection, vehicle: water 107 % of control | dose: 100.0 mg/kg/injection, vehicle: water 109 % of control | dose: 200.0 mg/kg/injection, vehicle: water 100 % of control

Cc1c(N)nc([C@H](CC(N)=O)NC[C@H](N)C(N)=O)nc1C(=O)N[C@H](C(=O)N[C@H](C)[C@@H](O)[C@H](C)C(=O)N[C@H](C(=O)NCCc1nc(-c2nc(C(=O)NCCC[S+](C)C)cs2)cs1)[C@@H](C)O)C(OC1OC(CO)C(O)C(O)C1OC1OC(CO)C(O)C(OC(N)=O)C1O)c1cnc[nH]1 (some centres not stated)
inactive: [4] 113 % of control | dose: 2.0 mg/kg/injection, vehicle: saline 97 % of control and 104 % of control and 112 % of control

OCC(O)C(O)C(O)C(O)CO (configuration not stated)
inactive: dose: 75.0 mg/kg/injection, vehicle: saline 100 % of control | dose: 150.0 mg/kg/injection, vehicle: saline 96 % of control | dose: 300.0 mg/kg/injection, vehicle: saline 92 % of control | dose: 600.0 mg/kg/injection, vehicle: saline 95 % of control | dose: 1200.0 mg/kg/injection, vehicle: saline 98 % of control

O=C1c2c(O)ccc(O)c2C(=O)c2c(NCCNCCO)ccc(NCCNCCO)c21
inactive: dose: 0.12 mg/kg/injection, vehicle: saline 94 % of control | dose: 0.12 mg/kg/injection, vehicle: water 104 % of control | dose: 0.25 mg/kg/injection, vehicle: saline 101 % of control | dose: 0.25 mg/kg/injection, vehicle: water 106 % of control | dose: 0.5 mg/kg/injection, vehicle: saline 100 % of control | dose: 0.5 mg/kg/injection, vehicle: water 110 % of control | [4] 123 % of control | dose: 1.0 mg/kg/injection, vehicle: water 120 % of control

NC(=S)N/N=C\c1ncccc1OCc1cccc(N)c1
inactive: dose: 12.5 mg/kg/injection, vehicle: distilled water + Tween-80 103 % of control | dose: 25.0 mg/kg/injection, vehicle: distilled water + Tween-80 109 % of control | dose: 50.0 mg/kg/injection, vehicle: distilled water + Tween-80 109 % of control | dose: 100.0 mg/kg/injection, vehicle: distilled water + Tween-80 102 % of control | dose: 200.0 mg/kg/injection, vehicle: distilled water + Tween-80 121 % of control

CC(C)(C)N1CC1CNC(=O)C(=O)NCC1CN1C(C)(C)C (configuration not stated)
inactive: dose: 0.39 mg/kg/injection, vehicle: saline with Tween-80 99 % of control | dose: 0.78 mg/kg/injection, vehicle: saline with Tween-80 102 % of control and 108 % of control | dose: 1.56 mg/kg/injection, vehicle: saline with Tween-80 105 % of control and 106 % of control | dose: 3.12 mg/kg/injection, vehicle: saline with Tween-80 101 % of control and 122 % of control | [5] 104 % of control and 111 % of control | [6] 108 % of control and 123 % of control

CCOc1cc2c(cc1C(C)c1ccc(OC)cc1)OCO2 (configuration not stated)
inactive: dose: 12.5 mg/kg/injection, vehicle: distilled water + Tween-80 + alcohol 104 % of control | dose: 12.5 mg/kg/injection, vehicle: distilled water + alcohol 106 % of control | dose: 25.0 mg/kg/injection, vehicle: distilled water + Tween-80 + alcohol 103 % of control | dose: 25.0 mg/kg/injection, vehicle: distilled water + alcohol 104 % of control | dose: 50.0 mg/kg/injection, vehicle: DMSO 102 % of control | dose: 50.0 mg/kg/injection, vehicle: distilled water + Tween-80 + alcohol 103 % of control | dose: 50.0 mg/kg/injection, vehicle: distilled water + alcohol 112 % of control | dose: 100.0 mg/kg/injection, vehicle: distilled water + alcohol 108 % of control | dose: 200.0 mg/kg/injection, vehicle: distilled water + alcohol 110 % of control

Cn1cnc([N+](=O)[O-])c1Sc1nc(N)nc2c1ncn2C1OC(CO)C(O)C1O (configuration not stated)
inactive: dose: 1.56 mg/kg/injection, vehicle: suspension in saline 105 % of control | dose: 3.12 mg/kg/injection, vehicle: suspension in saline 100 % of control | dose: 6.25 mg/kg/injection, vehicle: suspension in saline 105 % of control

CC(/C=C/c1ccccc1)=Nc1ccccc1
inactive: [6] 109 % of control | [7] 101 % of control | [8] 97 % of control | [9] 99 % of control | [10] 105 % of control

CSc1ncnc2c1ncn2C1OC(CO)C(O)C1O (configuration not stated)
inactive: dose: 3.12 mg/kg/injection, vehicle: saline + alcohol 96 % of control | dose: 6.25 mg/kg/injection, vehicle: saline + alcohol 97 % of control | dose: 12.5 mg/kg/injection, vehicle: saline + alcohol 100 % of control | dose: 25.0 mg/kg/injection, vehicle: saline + alcohol 105 % of control | dose: 50.0 mg/kg/injection, vehicle: saline + alcohol 117 % of control

CN(C)CCN1C(=O)c2cccc3cc([N+](=O)[O-])cc(c23)C1=O
inactive: dose: 0.75 mg/kg/injection, vehicle: saline with Tween-80 94 % of control | dose: 1.5 mg/kg/injection, vehicle: saline with Tween-80 93 % of control | dose: 3.0 mg/kg/injection, vehicle: saline with Tween-80 101 % of control | dose: 6.0 mg/kg/injection, vehicle: saline with Tween-80 95 % of control

C=C1C(=O)C2=CC1CCC(=O)C1(C)CCC(OC(C)=O)C(C)(C)C1CC2O (configuration not stated)
inactive: dose: 3.75 mg/kg/injection, vehicle: Klucel (hydroxypropylcellulose) (HPC) 93 % of control | dose: 7.5 mg/kg/injection, vehicle: Klucel (hydroxypropylcellulose) (HPC) 110 % of control | dose: 15.0 mg/kg/injection, vehicle: Klucel (hydroxypropylcellulose) (HPC) 98 % of control | dose: 30.0 mg/kg/injection, vehicle: Klucel (hydroxypropylcellulose) (HPC) 96 % of control | dose: 60.0 mg/kg/injection, vehicle: Klucel (hydroxypropylcellulose) (HPC) 100 % of control

CC1(C)CC1(Br)Br
inactive: [5] 99 % of control | [6] 96 % of control | [7] 99 % of control | [8] 100 % of control | [9] 115 % of control | [10] 100 % of control

Cc1cc(Nc2ccc3c(c2)OCO3)c2cc3c(cc2n1)OCO3
inactive: [11] 100 % of control | [12] 98 % of control | [13] 98 % of control and 104 % of control | [14] 101 % of control

O=c1oc2c(O)c(O)cc3c(=O)oc4c(O)c(O)cc1c4c23
inactive: [11] 105 % of control | [12] 105 % of control | [13] 106 % of control | [14] 110 % of control
